Test results as given in patent US6914045B2, “Glycopeptide antibiotics” (Wyeth Holdings Corporation, priority 2001, dated 2005).
Values after ≈ are worked out from the molar mass of the structure shown.

Assays:
[1] = system: Enterococcus faecalis (GC 2246); experiment: acute lethal infection in mice; format: in vivo; conditions: female CD-1 mice, intraperitoneal challenge, intravenous 30 min. after infection, 7 day survival
How it was run: (§1)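 Female CD-1 mice (20+/−2 gm) were infected intraperitoneally with enough bacteria, suspended in trypticase soy broth or hog gastric mucin, to kill untreated controls within 24-48 hr. Compound in saline or 5% dextrose was given intravenously 30 min post-infection, five mice per dose. ED50 came from pooled 7 day survival of 3 tests.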

[2] = system: Staphylococcus aureus-SMITH (GC 4543); experiment: acute lethal infection in mice; format: in vivo; conditions: acute lethal infection, female CD-1 mice, intraperitoneal challenge, intravenous 30 min. after infection, 7 day survival
How it was run: as §1

Streptococcus sp. = experiment: in vitro antibacterial evaluation, MIC by broth dilution; format: cell-based; conditions: broth dilution, 18 hours at 35° C.
How it was run: (§2)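 Broth dilution per NCCLS standard M7-A2 in Muller-Hinton II […], with an inoculum of 5×10^5 CFU/mL and antibiotic spanning 64-0.06 μg/mL. The MIC is the lowest concentration that inhibits growth of the organism.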

Escherichia coli = experiment: as above; format: cell-based; conditions: 18 hours at 35° C., strain ATCC 25922
How it was run: as §2

Staphylococcus sp. = experiment: as above; format: cell-based; conditions: broth dilution, 18 hours at 35° C.
How it was run: as §2

Enterococcus sp. = experiment: as above; format: cell-based; conditions: broth dilution, 18 hours at 35° C.
How it was run: as §2

SMILES: CCCC(CCC)C(=O)OCC1OC(OC2C(CO)OC(Oc3ccc(CC4NC(=O)C(C(C)c5ccccc5)NC(=O)CNC(=O)C(CO)NC(=O)C(C(O)C5CNC(=N)N5C5OC(CO)C(O)C(O)C5O)NC(=O)C(C(O)C5CNC(=N)N5)NC4=O)cc3)C(O)C2O)C(O)C(O)C1O (stereo not drawn) [Example 99c, Cyclo[glycyl-β-methylphenylalanyl-O-[4-O-[6-O-(2-propylpentanoyl)hexopyranosyl]-hexolpyranosyl]tyrosyl-3-(2-iminoimidazolidin-4-yl)seryl-3-(3-hexopyranosyl-2-iminoimidazolidin-4-yl)serylseryl]]
- median effective dose (ED50), Enterococcus faecalis (GC 2246) [1]: 4.3 mg/kg
- median effective dose (ED50), Staphylococcus aureus-SMITH (GC 4543) [2]: 0.52 mg/kg
- MIC Streptococcus agalactiae (GC 4564) (Streptococcus sp.; Streptococcus agalactiae (GC 4564)): <0.5 µg/mL
- MIC Streptococcus pneumoniae (GC 4565) (Streptococcus sp.; Streptococcus pneumoniae (GC 4565)): <0.5 µg/mL
- MIC Streptococcus pyogenes (ID-3187) (Streptococcus sp.; Streptococcus pyogenes (ID-3187)): <0.5 µg/mL
- MIC Streptococcus agalactiae (GC 4564) (Streptococcus sp.; strain GC 4564): <0.5 µg/mL
- MIC Streptococcus pneumoniae (GC 4565) (Streptococcus sp.; strain GC 4565): <0.5 µg/mL
- MIC Streptococcus pyogenes (ID-3187) (Streptococcus sp.; strain ID-3187): <0.5 µg/mL
- MIC Escherichia coli (ATCC 25922) (Escherichia coli): 64 µg/mL (≈ 45 µM)
- MIC Coagulase Negative Staphylococcus (GC 4547) (Staphylococcus sp.): 1 µg/mL (≈ 0.703 µM)
- MIC Coagulase Negative Staphylococcus (GC 4548) (Staphylococcus sp.): 1 µg/mL (≈ 0.703 µM)
- MIC Coagulase Negative Staphylococcus (GC 4549) (Staphylococcus sp.): 1 µg/mL (≈ 0.703 µM)
- MIC Coagulase Negative Staphylococcus (GC 4551) (Staphylococcus sp.): 2 µg/mL (≈ 1.41 µM)
- MIC Coagulase Negative Staphylococcus (ID-3941) (Staphylococcus sp.): 1 µg/mL (≈ 0.703 µM)
- MIC Staphylococcus aureus (ATCC 29213) (Staphylococcus sp.): 1 µg/mL (≈ 0.703 µM)
- MIC Staphylococcus aureus (GC 1131) (Staphylococcus sp.): 2 µg/mL (≈ 1.41 µM)
- MIC Staphylococcus aureus (GC 4541) (Staphylococcus sp.): 2 µg/mL (≈ 1.41 µM)
- MIC Staphylococcus aureus (GC 4542) (Staphylococcus sp.): 1 µg/mL (≈ 0.703 µM)
- MIC Staphylococcus aureus (GC 4544) (Staphylococcus sp.): 2 µg/mL (≈ 1.41 µM)
- MIC Staphylococcus aureus (GC 4545) (Staphylococcus sp.): 1 µg/mL (≈ 0.703 µM)
- MIC Staphylococcus aureus-SMITH (GC 4543) (Staphylococcus sp.): 1 µg/mL (≈ 0.703 µM)
- MIC Staphylococcus haemolyticus (GC 4546) (Staphylococcus sp.): 1 µg/mL (≈ 0.703 µM)
- MIC Staphylococcus haemolyticus (GC 4546) (Staphylococcus sp.; strain GC 4546): 1 µg/mL (≈ 0.703 µM)
- MIC Coagulase Negative Staphylococcus (GC 4547) (Staphylococcus sp.; strain GC 4547): 1 µg/mL (≈ 0.703 µM)
- MIC Coagulase Negative Staphylococcus (GC 4548) (Staphylococcus sp.; strain GC 4548): 1 µg/mL (≈ 0.703 µM)
- MIC Coagulase Negative Staphylococcus (GC 4549) (Staphylococcus sp.; strain GC 4549): 1 µg/mL (≈ 0.703 µM)
- MIC Coagulase Negative Staphylococcus (GC 4551) (Staphylococcus sp.; strain GC 4551): 2 µg/mL (≈ 1.41 µM)
- MIC Coagulase Negative Staphylococcus (ID-3941) (Staphylococcus sp.; strain ID-3941): 1 µg/mL (≈ 0.703 µM)
- MIC Staphylococcus aureus-SMITH (GC 4543) (Staphylococcus sp.; strain SMITH GC 4543): 1 µg/mL (≈ 0.703 µM)
- MIC Staphylococcus aureus (ATCC 29213) (Staphylococcus sp.; strain ATCC 29213): 1 µg/mL (≈ 0.703 µM)
- MIC Staphylococcus aureus (GC 1131) (Staphylococcus sp.; strain GC 1131): 2 µg/mL (≈ 1.41 µM)
- MIC Staphylococcus aureus (GC 4541) (Staphylococcus sp.; strain GC 4541): 2 µg/mL (≈ 1.41 µM)
- MIC Staphylococcus aureus (GC 4542) (Staphylococcus sp.; strain GC 4542): 1 µg/mL (≈ 0.703 µM)
- MIC Staphylococcus aureus (GC 4544) (Staphylococcus sp.; strain GC 4544): 2 µg/mL (≈ 1.41 µM)
- MIC Staphylococcus aureus (GC 4545) (Staphylococcus sp.; strain GC 4545): 1 µg/mL (≈ 0.703 µM)
- MIC Enterococcus avium (GC 4558) (Enterococcus sp.; Enterococcus avium (GC 4558)): 4 µg/mL (≈ 2.81 µM)
- MIC Enterococcus faecalis (ATCC 29212) (Enterococcus sp.; Enterococcus faecalis (ATCC 29212)): 4 µg/mL (≈ 2.81 µM)
- MIC Enterococcus faecalis (GC 2242) (Enterococcus sp.; Enterococcus faecalis (GC 2242)): 4 µg/mL (≈ 2.81 µM)
- MIC Enterococcus faecalis (GC 4552) (Enterococcus sp.; Enterococcus faecalis (GC 4552)): 4 µg/mL (≈ 2.81 µM)
- MIC Enterococcus faecalis (GC 4553) (Enterococcus sp.; Enterococcus faecalis (GC 4553)): 4 µg/mL (≈ 2.81 µM)
- MIC Enterococcus faecalis (GC 4554) (Enterococcus sp.; Enterococcus faecalis (GC 4554)): 4 µg/mL (≈ 2.81 µM)
- MIC Enterococcus faecium (GC 2243) (Enterococcus sp.; Enterococcus faecium (GC 2243)): 4 µg/mL (≈ 2.81 µM)
- MIC Enterococcus faecium (GC 4556) (Enterococcus sp.; Enterococcus faecium (GC 4556)): 4 µg/mL (≈ 2.81 µM)
- MIC Enterococcus faecium (GC 4557) (Enterococcus sp.; Enterococcus faecium (GC 4557)): 2 µg/mL (≈ 1.41 µM)
- MIC Enterococcus faecalis (ATCC 29212) (Enterococcus sp.; strain ATCC 29212): 4 µg/mL (≈ 2.81 µM)
- MIC Enterococcus faecalis (GC 2242) (Enterococcus sp.; strain GC 2242): 4 µg/mL (≈ 2.81 µM)
- MIC Enterococcus faecium (GC 2243) (Enterococcus sp.; strain GC 2243): 4 µg/mL (≈ 2.81 µM)
- MIC Enterococcus faecalis (GC 4552) (Enterococcus sp.; strain GC 4552): 4 µg/mL (≈ 2.81 µM)
- MIC Enterococcus faecalis (GC 4553) (Enterococcus sp.; strain GC 4553): 4 µg/mL (≈ 2.81 µM)
- MIC Enterococcus faecalis (GC 4554) (Enterococcus sp.; strain GC 4554): 4 µg/mL (≈ 2.81 µM)
- MIC Enterococcus faecium (GC 4556) (Enterococcus sp.; strain GC 4556): 4 µg/mL (≈ 2.81 µM)
- MIC Enterococcus faecium (GC 4557) (Enterococcus sp.; strain GC 4557): 2 µg/mL (≈ 1.41 µM)
- MIC Enterococcus avium (GC 4558) (Enterococcus sp.; strain GC 4558): 4 µg/mL (≈ 2.81 µM)
